These results are taken from ChEMBL document CHEMBL1134273, “Design, synthesis, and characterization of the antitumor activity of novel ceramide analogues” (J Med Chem, 2001).

Experiment [1] relates to CCRF-CEM. Put plainly: In vitro growth inhibitory effect in human T-cell acute leukemia cells CCRF-CEM. The experiment is classed as functional, cell-based.
Experiment [2] has as its system CCRF-CEM. Put plainly: Percentage increase in caspase-3 activity of CCRF-CEM human T-leukemia cells. In kind it is functional.

By IC50 is commonly meant the concentration needed to halve the response being measured. A lower IC50 goes with inhibition by little substance. In the experiment on CCRF-CEM [1], `CCCCCCCCCCCCC/C=C/[C@@H](O)[C@H](CO)NC(C)=O` had an IC50 of 31.6 µM. This compound came in with an Increase with CCRF-CEM [2] of 2.8%.
In the same order, the values of `CCCCCCCCCCCCCCc1c(O)nc(O)nc1CC` are 7.9 µM and 8.1%.
As for `CCCCCCCCCCCCCCc1nc(S)nc(O)c1CC`, the Increase in the experiment with CCRF-CEM [2] was determined as 1.2%.
In the experiment with CCRF-CEM [2], `CCCCCCCCCCCCCCc1nc(O)nc(O)c1CC` gave an Increase of 1.7%.
`CCCCCCCCCCCCCCc1c(O)nc(S)nc1CC` yielded a 50% inhibitory concentration (IC50) in the experiment on CCRF-CEM [1] of 1.7 µM. In the experiment on CCRF-CEM [2], this compound yielded an Increase of 5%.
